Results: PubChem BioAssay AID288 (DTP/NCI, 2004)
Values joined by “and” are separate entries in the source; they are usually repeats but may differ in a detail not shown here. Equal entries are not always repeated. Inconclusive results are not listed.

Tested on: BDF1 mice, M5076 sarcoma s.c., survival/tumor T/C
Experiment: NCI In Vivo Anticancer Drug Screen. Data for tumor model Sarcoma M5076 (subcutaneous) in B6D2F1 (BDF1) mice
Experimental: The antitumor activity of compounds was measured in mice bearing transplantable tumors. Survival or tumor size were measured and the results are expressed as the measurement made in the treated group (T) divided by the measurement made in the vehicle treated control group (C). The tumor model used in this assay is Sarcoma M5076 (subcutaneous) in B6D2F1 (BDF1) mice

[1] = endpoint: median survival time, dose: 50.0 mg/kg/injection, schedule: Q01DX009 (ip), vehicle: saline with Tween-80, higher = longer survival
[2] = endpoint: median survival time, dose: 100.0 mg/kg/injection, schedule: Q01DX009 (ip), vehicle: saline with Tween-80, higher = longer survival
[3] = endpoint: median tumor weight (est.), dose: 50.0 mg/kg/injection, schedule: Q01DX009 (ip), vehicle: saline with Tween-80, higher = larger tumour
[4] = endpoint: median tumor weight (est.), dose: 100.0 mg/kg/injection, schedule: Q01DX009 (ip), vehicle: saline with Tween-80, higher = larger tumour
[5] = endpoint: median survival time, dose: 200.0 mg/kg/injection, schedule: Q01DX009 (ip), vehicle: saline with Tween-80, higher = longer survival
[6] = endpoint: median tumor weight (est.), dose: 200.0 mg/kg/injection, schedule: Q01DX009 (ip), vehicle: saline with Tween-80, higher = larger tumour

## Nc1nnc[se]1
endpoint: median survival time, dose: 50.0 mg/kg/injection, schedule: Q04DX003 (ip), vehicle: saline with Tween-80, higher = longer survival
  T/C: 121 % of control
endpoint: median survival time, dose: 100.0 mg/kg/injection, schedule: Q04DX003 (ip), vehicle: saline with Tween-80, higher = longer survival
  T/C: 116 % of control
endpoint: median survival time, dose: 200.0 mg/kg/injection, schedule: Q04DX003 (ip), vehicle: saline with Tween-80, higher = longer survival
  T/C: 124 % of control

## CNNCc1ccc(C(=O)NC(C)C)cc1
endpoint: median survival time, dose: 44.0 mg/kg/injection, schedule: Q04DX006 (ip), vehicle: saline, higher = longer survival
  T/C: 118 % of control
endpoint: median survival time, dose: 88.0 mg/kg/injection, schedule: Q02DX033 (ip), vehicle: saline, higher = longer survival
  T/C: 214 % of control
endpoint: median survival time, dose: 88.0 mg/kg/injection, schedule: Q04DX006 (ip), vehicle: saline, higher = longer survival
  T/C: 151 % of control
endpoint: median survival time, dose: 176.0 mg/kg/injection, schedule: Q02DX033 (ip), vehicle: saline, higher = longer survival
  T/C: 92 % of control
endpoint: median survival time, dose: 176.0 mg/kg/injection, schedule: Q04DX006 (ip), vehicle: saline, higher = longer survival
  T/C: 216 % of control
endpoint: median survival time, dose: 352.0 mg/kg/injection, schedule: Q04DX006 (ip), vehicle: saline, higher = longer survival
  T/C: 179 % of control

## CC1(C)OCC(CO)(Nc2nc(N3CC3)nc(N3CC3)n2)CO1
endpoint: median survival time, dose: 0.78 mg/kg/injection, schedule: Q02DX011 (ip), vehicle: saline, higher = longer survival
  T/C: 98 % of control
endpoint: median survival time, dose: 1.56 mg/kg/injection, schedule: Q02DX011 (ip), vehicle: saline, higher = longer survival
  T/C: 110 % of control
endpoint: median survival time, dose: 3.12 mg/kg/injection, schedule: Q02DX011 (ip), vehicle: saline, higher = longer survival
  T/C: 164 % of control

## CC(=O)Nc1ccc(OC(=O)Nc2ccc(C)c(NC(=O)Oc3ccc(NC(C)=O)cc3)c2)cc1
[1]
  T/C: 113 % of control
[2]
  T/C: 95 % of control
[3]
  T/C: 47 % of control
[4]
  T/C: 187 % of control

## CC/C(=C(/CC)c1ccc(O)cc1)c1ccc(O)cc1
endpoint: mean tumor weight, dose: 7.5 mg/kg/injection, schedule: Q02DX011 (ip), vehicle: Klucel (hydroxypropylcellulose) (HPC), higher = larger tumour
  T/C: 114 % of control
endpoint: mean tumor weight, dose: 15.0 mg/kg/injection, schedule: Q02DX011 (ip), vehicle: Klucel (hydroxypropylcellulose) (HPC), higher = larger tumour
  T/C: 62 % of control and 87 % of control
endpoint: mean tumor weight, dose: 60.0 mg/kg/injection, schedule: Q02DX011 (ip), vehicle: Klucel (hydroxypropylcellulose) (HPC), higher = larger tumour
  T/C: 55 % of control
endpoint: median tumor weight (est.), dose: 15.0 mg/kg/injection, schedule: Q02DX011 (ip), vehicle: Klucel (hydroxypropylcellulose) (HPC), higher = larger tumour
  T/C: 88 % of control
endpoint: median tumor weight (est.), dose: 30.0 mg/kg/injection, schedule: Q02DX011 (ip), vehicle: Klucel (hydroxypropylcellulose) (HPC), higher = larger tumour
  T/C: 66 % of control
endpoint: median tumor weight (est.), dose: 60.0 mg/kg/injection, schedule: Q02DX011 (ip), vehicle: Klucel (hydroxypropylcellulose) (HPC), higher = larger tumour
  T/C: 28 % of control

## CNc1nc(N(C)C)nc(N(C)C)n1
endpoint: median tumor weight (est.), dose: 15.0 mg/kg/injection, schedule: Q02DX011 (ip), vehicle: water, higher = larger tumour
  T/C: 87 % of control
endpoint: median tumor weight (est.), dose: 30.0 mg/kg/injection, schedule: Q02DX011 (ip), vehicle: water, higher = larger tumour
  T/C: 85 % of control
endpoint: median tumor weight (est.), dose: 60.0 mg/kg/injection, schedule: Q02DX011 (ip), vehicle: water, higher = larger tumour
  T/C: 43 % of control
endpoint: median tumor weight (est.), dose: 120.0 mg/kg/injection, schedule: Q02DX011 (ip), vehicle: water, higher = larger tumour
  T/C: 13 % of control

## O=C(O)C1(C(=O)O)CCC1.[NH2-].[NH2-].[Pt+2]
endpoint: median survival time, dose: 6.25 mg/kg/injection, schedule: Q02DX030 (ip), vehicle: water, higher = longer survival
  T/C: 98 % of control
endpoint: median survival time, dose: 17.0 mg/kg/injection, schedule: Q01DX009 (ip), vehicle: other, higher = longer survival
  T/C: 100 % of control
endpoint: median survival time, dose: 25.0 mg/kg/injection, schedule: Q01DX009 (ip), vehicle: other, higher = longer survival
  T/C: 114 % of control
endpoint: median survival time, dose: 25.0 mg/kg/injection, schedule: Q02DX030 (ip), vehicle: water, higher = longer survival
  T/C: 165 % of control
endpoint: median survival time, dose: 25.92 mg/kg/injection, schedule: Q04DX005 (ip), vehicle: water, higher = longer survival
  T/C: 162 % of control
endpoint: median survival time, dose: 38.0 mg/kg/injection, schedule: Q01DX009 (ip), vehicle: other, higher = longer survival
  T/C: 107 % of control
endpoint: median survival time, dose: 43.2 mg/kg/injection, schedule: Q04DX005 (ip), vehicle: water, higher = longer survival
  T/C: 169 % of control
endpoint: median survival time, dose: 50.0 mg/kg/injection, schedule: Q02DX030 (ip), vehicle: water, higher = longer survival
  T/C: 94 % of control
endpoint: median survival time, dose: 72.0 mg/kg/injection, schedule: Q04DX005 (ip), vehicle: water, higher = longer survival
  T/C: 196 % of control
endpoint: median tumor weight (est.), dose: 15.6 mg/kg/injection, schedule: Q04DX005 (ip), vehicle: water, higher = larger tumour
  T/C: 22 % of control
endpoint: median tumor weight (est.), dose: 25.92 mg/kg/injection, schedule: Q04DX005 (ip), vehicle: water, higher = larger tumour
  T/C: 20 % of control

## Cc1[nH]c(=O)[nH]c(=O)c1N(CCF)CCCl
endpoint: median survival time, dose: 4.0 mg/kg/injection, schedule: Q01DX009 (ip), vehicle: saline with Tween-80, higher = longer survival
  T/C: 104 % of control
endpoint: median survival time, dose: 8.0 mg/kg/injection, schedule: Q01DX009 (ip), vehicle: saline with Tween-80, higher = longer survival
  T/C: 120 % of control
endpoint: median tumor weight (est.), dose: 4.0 mg/kg/injection, schedule: Q01DX009 (ip), vehicle: saline with Tween-80, higher = larger tumour
  T/C: 101 % of control
endpoint: median tumor weight (est.), dose: 8.0 mg/kg/injection, schedule: Q01DX009 (ip), vehicle: saline with Tween-80, higher = larger tumour
  T/C: 47 % of control and 57 % of control
endpoint: median tumor weight (est.), dose: 16.0 mg/kg/injection, schedule: Q01DX009 (ip), vehicle: saline with Tween-80, higher = larger tumour
  T/C: 8 % of control and 17 % of control

## CCCNC(=O)ON1C(=O)C2C3C=CC(C3)C2C1=O (stereo not given)
endpoint: median survival time, dose: 3.12 mg/kg/injection, schedule: Q01DX009 (ip), vehicle: saline with Tween-80, higher = longer survival
  T/C: 98 % of control
endpoint: median survival time, dose: 6.25 mg/kg/injection, schedule: Q01DX009 (ip), vehicle: saline with Tween-80, higher = longer survival
  T/C: 95 % of control
endpoint: median survival time, dose: 12.5 mg/kg/injection, schedule: Q01DX009 (ip), vehicle: saline with Tween-80, higher = longer survival
  T/C: 103 % of control
endpoint: median tumor weight (est.), dose: 3.12 mg/kg/injection, schedule: Q01DX009 (ip), vehicle: saline with Tween-80, higher = larger tumour
  T/C: 93 % of control
endpoint: median tumor weight (est.), dose: 6.25 mg/kg/injection, schedule: Q01DX009 (ip), vehicle: saline with Tween-80, higher = larger tumour
  T/C: 107 % of control

## COc1cccc(/C=N/NP(=S)(Oc2ccc(C(C)(C)C)cc2)Oc2ccc(C(C)(C)C)cc2)c1OC
[1]
  T/C: 94 % of control
[2]
  T/C: 94 % of control
[5]
  T/C: 100 % of control
[3]
  T/C: 122 % of control
[4]
  T/C: 100 % of control
[6]
  T/C: 74 % of control

## Nc1ccc(N2N=C(N3CCCC3)CC2=O)cc1
[1]
  T/C: 100 % of control
[2]
  T/C: 99 % of control
[5]
  T/C: 94 % of control
[3]
  T/C: 112 % of control
[6]
  T/C: 80 % of control

## O=c1[nH]c(=O)n(C2CC(O)C(CO)O2)cc1F (stereo not given)
endpoint: mean tumor weight, dose: 20.0 mg/kg/injection, schedule: Q02DX011 (ip), vehicle: Klucel (hydroxypropylcellulose) (HPC), higher = larger tumour
  T/C: 66 % of control
endpoint: mean tumor weight, dose: 40.0 mg/kg/injection, schedule: Q02DX011 (ip), vehicle: Klucel (hydroxypropylcellulose) (HPC), higher = larger tumour
  T/C: 49 % of control
endpoint: mean tumor weight, dose: 80.0 mg/kg/injection, schedule: Q02DX011 (ip), vehicle: Klucel (hydroxypropylcellulose) (HPC), higher = larger tumour
  T/C: 13 % of control
endpoint: median tumor weight (est.), dose: 20.0 mg/kg/injection, schedule: Q02DX011 (ip), vehicle: Klucel (hydroxypropylcellulose) (HPC), higher = larger tumour
  T/C: 62 % of control
endpoint: median tumor weight (est.), dose: 40.0 mg/kg/injection, schedule: Q02DX011 (ip), vehicle: Klucel (hydroxypropylcellulose) (HPC), higher = larger tumour
  T/C: 46 % of control and 70 % of control
endpoint: median tumor weight (est.), dose: 160.0 mg/kg/injection, schedule: Q02DX011 (ip), vehicle: Klucel (hydroxypropylcellulose) (HPC), higher = larger tumour
  T/C: 23 % of control

## CN(C)/N=N/c1nc[nH]c1C(N)=O
endpoint: median survival time, dose: 13.5 mg/kg/injection, schedule: Q04DX006 (ip), vehicle: saline with Tween-80, higher = longer survival
  T/C: 96 % of control
endpoint: median survival time, dose: 27.0 mg/kg/injection, schedule: Q02DX030 (ip), vehicle: saline with Tween-80, higher = longer survival
  T/C: 177 % of control
endpoint: median survival time, dose: 27.0 mg/kg/injection, schedule: Q04DX006 (ip), vehicle: saline with Tween-80, higher = longer survival
  T/C: 122 % of control
endpoint: median survival time, dose: 54.0 mg/kg/injection, schedule: Q02DX030 (ip), vehicle: saline with Tween-80, higher = longer survival
  T/C: 191 % of control

## O=C1c2ccccc2C(=O)c2c(NCCNCCO)ccc(NCCNCCO)c21
endpoint: median survival time, dose: 7.78 mg/kg/injection, schedule: Q04DX004 (ip), vehicle: saline, higher = longer survival
  T/C: 100 % of control
endpoint: median survival time, dose: 7.78 mg/kg/injection, schedule: Q04DX004 (iv), vehicle: saline, higher = longer survival
  T/C: 102 % of control
endpoint: median survival time, dose: 13.0 mg/kg/injection, schedule: Q04DX004 (ip), vehicle: saline, higher = longer survival
  T/C: 96 % of control
endpoint: median survival time, dose: 13.0 mg/kg/injection, schedule: Q04DX004 (iv), vehicle: saline, higher = longer survival
  T/C: 88 % of control
endpoint: median survival time, dose: 21.6 mg/kg/injection, schedule: Q04DX004 (ip), vehicle: saline, higher = longer survival
  T/C: 90 % of control
endpoint: median survival time, dose: 21.6 mg/kg/injection, schedule: Q04DX004 (iv), vehicle: saline, higher = longer survival
  T/C: 100 % of control
endpoint: median survival time, dose: 36.0 mg/kg/injection, schedule: Q04DX004 (ip), vehicle: saline, higher = longer survival
  T/C: 103 % of control
